Where two headings read alike, the source gives them in different places.
Tests used:
Type in all cases: cell-based
[1] = biological target: T1, MCL-1 protein (Homo sapiens, UniProt Q07820); assay: MCL-1 protein degradation in MV4-11 cells, Western blot; conditions: 6 hours; for MCL-1 protein abundance: MV4-11, % of DMSO control; for MCL-1 protein degradation (Western blot, in words): MV4-11 cells
T1 construct: endogenous in cells; host or cells: MV4-11
Description: MV4-11 cells were maintained in IMDM medium, supplemented with penicillin/streptomycin and 10% Fetal Bovine Serum (FBS). MV4-11 cells were collected, centrifuged (250 rcf, 5 min), resuspended in a growth medium containing 10% FBS and counted. The cell suspension was then adjusted to 1×10^6 cells/ml using a growth medium containing 10% FBS. Afterwards, 0.5×10^6 cells were seeded on 24-well plates in 0.5 mL of medium per well. Immediately after seeding, cells were pre-treated for 30 minutes with DMSO or pan-caspase inhibitor—Q-VD-Oph. Next, compounds from stocks pre-diluted in DMSO were added directly to the cell culture medium in appropriate concentrations (the final DMSO concentration was 0.5%). Following the 6 hours treatment with the compounds, cells were collected from the plates and suspended in a lysis buffer (2% SDS, 50 mM Tris, pH 8.0, 100 U/ml Pierce Universal Nuclease for Cell Lysis, complete EDTA-free Protease Inhibitor Cocktail) and incubated on ice for 45 min. The amount of protein was determined via BCA assay, and an equal quantity of each sample was loaded on the precast gel for protein separation. After the antibody staining for MCL-1, α-tubulin, and cleaved forms of PARP and caspase 3, the membranes were washed and signals developed.
Densitometric values for MCL-1 were normalized to total protein level (stain-free membrane). [%] of protein reduction is calculated in comparison to the cells treated with DMSO, which stand for 0%.

[2] = system: MV4-11 cells; assay: Cell viability assay (CellTiter-Glo, CTG protocol), MV4-11; conditions: Homo sapiens, MV4-11 (MCL-1 dependent AML line), 24 hours incubation, 1% FBS, read-out: Average pCC50 by molecule MV4-11 (converted)
Source text: (§1) The effect of various compounds of the invention on the viability of MV4-11 and ARH-77 cell lines was investigated, using the CTG protocol described below.
(§2) MV4-11 cell lines are derived from acute myeloid leukaemia and it is described in the literature as a MCL-1 dependent cell line, as opposed to lymphoblast-like ARH-77 cell line, which is described as independent of MCL-1 (Tron A E et al. Nat Commun. 2018; 9: 5341; Caenepeel S et al. Cancer Discov. 2018 December; 8(12): 1582-1597).
(§3) Cells (MV4-11 or ARH-77) were seeded on […] in a growth medium with 1% FBS. Next, compound stocks were pre-diluted in DMSO and added directly to the cell culture media (final DMSO concentration: 0.5%). Compound concentrations used in this assay: 1/3 dilutions starting at 30 μM (9 to 12 points). After 24 hours of incubation, cell viability was evaluated using CellTiter-Gob® Luminescent Cell Viability Assay (Promega, cat #G7572). The luminescence signal was measured using a CLARIOstar Plus Multi-Mode Microplate Reader (574-590 nm).
(§4) Results were normalized to DMSO control. Collected data were analyzed using GraphPad Prism to calculate pCC50 values (i.e. the negative log of the CC50 value). CC50 (50% cytotoxic concentration) is the effective concentration of a cytotoxic compound, which produces 50% of the maximum possible cell death (i.e. the concentration of the compound which is required in order to reduce cell viability by 50%). CC50 is often used rather than IC50 in cell toxicity assays.

[3] = biological target: T2, CRBN (Homo sapiens, UniProt Q96SW2); assay: NanoBRET In-cell CRBN Target Engagement Assay (live and lytic mode), NanoLuc CRBN HEK293 cells
T2 construct: host or cells: HEK293 (NanoLuc CRBN HEK293 cells)
T2 sequence (Q96SW2 whole entry): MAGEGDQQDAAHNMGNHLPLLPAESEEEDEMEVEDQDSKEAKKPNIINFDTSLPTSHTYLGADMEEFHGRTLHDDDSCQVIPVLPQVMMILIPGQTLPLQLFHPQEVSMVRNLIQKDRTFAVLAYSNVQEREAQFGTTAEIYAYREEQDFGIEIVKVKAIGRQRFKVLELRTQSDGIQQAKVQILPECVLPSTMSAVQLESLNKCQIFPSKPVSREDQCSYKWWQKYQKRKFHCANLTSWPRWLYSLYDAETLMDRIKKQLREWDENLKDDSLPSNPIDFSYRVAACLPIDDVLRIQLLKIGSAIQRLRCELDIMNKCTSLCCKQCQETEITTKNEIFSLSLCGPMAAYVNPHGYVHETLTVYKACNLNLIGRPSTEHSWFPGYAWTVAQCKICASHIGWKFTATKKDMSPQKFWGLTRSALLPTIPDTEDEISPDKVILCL
Description: Commercially available, NanoBRET In-cell CRBN Target Engagement Assay (NanoBRET CRBN TE Assay), which uses NanoLuc CRBN HEK293 cells and NanoBRET In-cell CRBN Tracer was used (N2910, N2912, PROMEGA) to determine the cell membrane permeability of prodrugs of MCL-1 degraders.
The assay was run in 96-well plate format (cat. 3600, Corning). NanoLuc CRBN HEK293 cells were treated with CRBN Tracer and compounds. Briefly, prepared was cell suspension (0.17×10^6cells/ml) in Opti-MEM without phenol red (Life Technologies). The cells were treated with CRBN Tracer (20× concentrated, 5 μl/well. For the live mode: 0.8 μM and for the lytic: 0.17 μM final concentration) or DMSO vehicle control (20× concentrated, 5 μl/well). Such prepared cells were seeded into the wells of 96-well plate on top of compounds (100× concentrated, 1 μl/well; 11-point 2-fold dilution) pre-plated on them with the help of Echo 555 acoustic dispenser (Labcyte). For the lytic mode assay, Digitonin (0.05 mg/ml, 10× concentrated, 10 μl/well) was added additionally. In the live mode assay, the plate was incubated at 37° C., 5% CO2 for 2 hours, and then at room temperature for 15 minutes to cool down. In the lytic mode assay, there was no incubation. The 3×Complete NanoBRET reagent (50 μl/well) was prepared according to the manufacturer's recommendations, appropriately for live and lytic mode. The plate was incubated for 2 minutes at room temperature and the luminescence and fluorescence readings followed using CLARIOstar Multimode Plate Reader (donor emission RLU—450 nm; acceptor emission RFU—610 nm). RBA value is an indicator of cell membrane permeability (the lower, the better) is calculated from absolute pIC50 (the negative log of the absolute IC50 value when converted to molar) of the live mode assay (pIC50 Live) and the lytic mode assay (pIC50 Lytic).

[4] = Cell viability assay (CellTiter-Glo, CTG protocol), ARH-77; conditions: human, ARH-77 cells (lymphoblast-like), ARH-77 (MCL-1 independent line), 24 hours incubation, 1% FBS, read-out: Average pCC50 by molecule ARH-77 (converted)
Source text: as §1, §2, §3, §4

[5] = 1 nM, + Q-VD-Oph (pan-caspase inhibitor)
[6] = 10 nM, + Q-VD-Oph (pan-caspase inhibitor)
[7] = 100 nM, + Q-VD-Oph (pan-caspase inhibitor)
[8] = live mode, intact cells, 2 hours at 37° C., read-out: pIC50 (live) (converted)
[9] = lytic mode, digitonin-lysed cells, no incubation, read-out: pIC50 (lytic) (converted)

T1 sequence (Q07820 whole entry): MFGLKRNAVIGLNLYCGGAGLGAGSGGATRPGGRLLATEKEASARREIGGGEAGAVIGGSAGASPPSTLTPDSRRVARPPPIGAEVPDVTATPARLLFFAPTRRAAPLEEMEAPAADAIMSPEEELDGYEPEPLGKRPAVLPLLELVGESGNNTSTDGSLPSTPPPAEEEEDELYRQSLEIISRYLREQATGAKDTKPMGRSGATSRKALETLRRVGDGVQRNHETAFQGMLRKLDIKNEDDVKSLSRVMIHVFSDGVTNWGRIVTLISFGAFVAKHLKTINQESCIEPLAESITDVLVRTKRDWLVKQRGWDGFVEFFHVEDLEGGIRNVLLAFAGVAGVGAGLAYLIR

| IC50 [3, 8] | IC50 [3, 9] | MCL-1 protein degradation (Western blot, in words) ([1]; apoptosis not blocked) | Compound | MCL-1 protein abundance [1, 5] | MCL-1 protein abundance [1, 6] | MCL-1 protein abundance [1, 7] | MCL-1 protein degradation (Western blot, in words) ([1]; in the presence of apoptosis inhibitor) | CC50 [2] | CC50 at 24 h [4] | MCL-1 protein abundance ([1]; 1 nM, without Q-VD-Oph) | MCL-1 protein abundance ([1]; 10 nM, without Q-VD-Oph) | MCL-1 protein abundance ([1]; 100 nM, without Q-VD-Oph) |
| --- | --- | --- | --- | --- | --- | --- | --- | --- | --- | --- | --- | --- |
| 39.8 nM | 6310 nM | MCL-1 protein degradation | Cc1nn(C)c(C)c1-c1c(Cl)ccc2c(CCCOc3cccc4cc(F)ccc34)c(C(=O)OCOC(=O)C(C)(C)C)n(CCN3CCN(C(=O)COc4cccc5c4CN(C4CCC(=O)NC4=O)C5=O)CC3)c12 (stereo not drawn) [Compound 69, (6-Chloro-1-{2-[4-(2-{[2-(2,6-dioxopiperidin-3-yl)-1-oxo-2,3-dihydro-1H-isoindol-4-yl]oxy}acetyl)piperazin-1-yl]ethyl}-3-{3-[(6-fluoronaphthalen-1-yl)oxy]propyl}-7-(1,3,5-trimethyl-1H-pyrazol-4-yl)-1H-indole-2-carbonyloxy)methyl 2,2-dimethylpropanoate] | C (Amount of MCL-1 protein >50% and <75% calculated as % of DMSO control) | B (Amount of MCL-1 protein >25% and ≤50% calculated as % of DMSO control) | B (Amount of MCL-1 protein >25% and ≤50% calculated as % of DMSO control) | – | < 10 nM | > 31600 nM | C (Amount of MCL-1 protein >50% and <75% calculated as % of DMSO control) | B (Amount of MCL-1 protein >25% and ≤50% calculated as % of DMSO control) | A (Amount of MCL-1 protein ≤25% calculated as % of DMSO control) |
| 12.6 nM | 316 nM | – | Cc1nn(C)c(C)c1-c1c(Cl)ccc2c(CCCOc3cccc4cc(F)ccc34)c(C(=O)OCOC(=O)C(C)(C)C)n(CCN3CCN(C(=O)COc4ccc5c(c4)n(C)c(=O)n5C4CCC(=O)NC4=O)CC3)c12 (stereo not drawn) [Compound 74, (Pivaloyloxy)methyl 6-chloro-1-(2-(4-(2-((1-(2,6-dioxopiperidin-3-yl)-3-methyl-2-oxo-2,3-dihydro-1H-benzo[d]imidazol-5-yl)oxy)acetyl)piperazin-1-yl)ethyl)-3-(3-((6-fluoronaphthalen-1-yl)oxy)propyl)-7-(1,3,5-trimethyl-1H-pyrazol-4-yl)-1H-indole-2-carboxylate] | – | – | – | – | < 3.16 nM | > 1000 nM | – | – | – |
| 63.1 nM | 794 nM | – | CCOCCOCCOC(=O)OC(C)OC(=O)c1c(CCCOc2cccc3cc(F)ccc23)c2ccc(Cl)c(-c3c(C)nn(C)c3C)c2n1CCN1CCN(C(=O)COc2cccc3c2CN(C2CCC(=O)NC2=O)C3=O)CC1 (stereo not drawn) [Compound 101, 4-Oxo-3,5,8,11-tetraoxatridecan-2-yl 6-chloro-1-(2-(4-(2-((2-(2,6-dioxopiperidin-3-yl)-1-oxoisoindolin-4-yl)oxy)acetyl)piperazin-1-yl)ethyl)-3-(3-((6-fluoronaphthalen-1-yl)oxy)propyl)-7-(1,3,5-trimethyl-1H-pyrazol-4-yl)-1H-indole-2-carboxylate] | – | – | – | – | < 31.6 nM | > 31600 nM | – | – | – |

| Compound | IC50 [3, 8] | IC50 [3, 9] | MCL-1 protein degradation (Western blot, in words) ([1]; apoptosis not blocked) | MCL-1 protein abundance [1, 5] | MCL-1 protein abundance [1, 6] | MCL-1 protein abundance [1, 7] | MCL-1 protein degradation (Western blot, in words) ([1]; in the presence of apoptosis inhibitor) | CC50 [2] | CC50 at 24 h [4] | MCL-1 protein abundance ([1]; 1 nM, without Q-VD-Oph) | MCL-1 protein abundance ([1]; 10 nM, without Q-VD-Oph) | MCL-1 protein abundance ([1]; 100 nM, without Q-VD-Oph) |
| --- | --- | --- | --- | --- | --- | --- | --- | --- | --- | --- | --- | --- |
| CC(=O)OCOC(=O)c1c(CCCOc2cccc3cc(F)ccc23)c2ccc(Cl)c(-c3c(C)nn(C)c3C)c2n1CCN1CCN(C(=O)COc2cccc3c2CN(C2CCC(=O)NC2=O)C3=O)CC1 (stereo not drawn) [Compound 41, Acetoxymethyl 6-chloro-1-(2-(4-(2-((2-(2,6-dioxopiperidin-3-yl)-1-oxoisoindolin-4-yl)oxy)acetyl)piperazin-1-yl)ethyl)-3-(3-((6-fluoronaphthalen-1-yl)oxy)propyl)-7-(1,3,5-trimethyl-1H-pyrazol-4-yl)-1H-indole-2-carboxylate] | 7.94 nM | 501 nM | – | B (Amount of MCL-1 protein >25% and ≤50% calculated as % of DMSO control) | A (Amount of MCL-1 protein ≤25% calculated as % of DMSO control) | A (Amount of MCL-1 protein ≤25% calculated as % of DMSO control) | MCL-1 protein degradation | < 1 nM | > 10000 nM | – | – | – |

Source: US20260241013A1, “TARGETED PROTEIN DEGRADATION USING PRODRUGS OF BIFUNCTIONAL COMPOUNDS THAT BIND UBIQUITIN LIGASE AND A TARGET MCL-1 PROTEIN” (Captor Therapeutics S.A., priority 2022, published 2026)
